Read-outs that look alike come from different tables or passages of the source.
Key:
[1] = system: human LOX-IMVI melanoma cell xenografts; assay: Tumor growth inhibition in mice with human LOX-IMVI melanoma xenografts; assay type: in vivo; conditions: monotherapy; for % Inhibition end of study Day: 19 / % T/C end of study Day: 19 / Average % Regression per Group / Mean Tumor Volume End Study DAY: 19 / % Inhibition end of study Day: 18 / % T/C end of study Day: 18 / Mean Tumor Volume End Study DAY: 18 / % Tumor Growth Inhibition: 10 mice; for Complete Regression / Partial Regression: animals out of 10 per group
Method: (§1) Mice were implanted with human LOX-IMVI melanoma cell xenografts. The mice, cell line used, and implantation are described below.
(§2) Female athymic Crl:NU-Foxn1nu mice were used for efficacy testing (Charles River, Wilmington, Mass., USA). Mice were 10-12 weeks of age and weighed 23-25 grams. The health of the mice was assessed daily by observation and analysis of blood samples taken from sentinel animals on shared shelf racks. All animals were allowed to acclimate and recover from shipping-related stress for one week. Autoclaved water and irradiated food (5058-ms Pico Lab mouse chow, Purina Mills, Richmond, Ind., USA) were provided ad libitum, and the animals were kept in a 12 hour light and dark cycle. Cages, bedding and water bottles were autoclaved before use and changed weekly. All animal experiments were conducted in accordance with the Guide for the Care and Use of Laboratory Animals, local regulations, and protocols approved by the Roche Animal Care and Use Committee in our AAALAC accredited facility.
(§3) LOX-IMVI cells (aka LOX, National Cancer Institute—Bethesda, Md.) were grown in RPMI-1640 medium supplemented with 10% Fetal Bovine Serum (FBS) and 1% of […] L-glutamine, scaled up, harvested, and prepared so that each mouse received 2×10^6 cells/0.2 ml calcium and magnesium free phosphate-buffered saline (PBS). Cells were implanted in the subcutaneous right flank of each mouse.
(§4) Mice implanted with human xenografts were randomized into eight groups of 10 mice each according to tumor volume so that all groups had similar starting mean tumor volumes. The approximate starting mean tumor volume for this study was 130 mm^3.
(§5) Treatment began on day 5 post-cell implant and ended at day 18 post-cell implant. Four groups of mice developed in example 3 were used. Each group was subjected to a different therapy as follows: • (1) mice receiving Compound I vehicle bid po and peginterferon alfa-2a vehicle 1×/wk sc; • (2) mice receiving Compound I at 75 mg/kg bid bid po; • (3) mice receiving peginterferon alfa-2a at 900 μg 1×/wk sc; and • (4) mice receiving Compound I at 75 mg/kg bid bid po and peginterferon alfa-2a at 900 μg 1×/wk sc.
(§6) The Compound I suspension and its corresponding vehicle were dosed using a sterile 1 cc syringe and 18-gauge gavage needle (0.2 ml/animal) twice daily. The peginterferon alfa-2a solution and its corresponding vehicle were dosed using a sterile 1 cc syringe and 26-gauge needle (0.2 ml/animal) once weekly on days 5 and 12 post-cell implant for a total of two injections.
Tumor measurements were taken once or twice per week. All animals were individually followed throughout the experiment.
Efficacy data was graphically represented as the mean tumor volume±standard error of the mean (SEM). In addition, tumor volumes of treated groups were presented as percentages of tumor volumes of the control groups (% T/C), using the formula: 100×((T−T0)/(C−C0)), where T represented mean tumor volume of a treated group on a specific day during the experiment, T0 represented mean tumor volume of the […] on the first day of treatment; C represented mean tumor volume of a control group on the specific day during the experiment, and Co represented mean tumor volume of the […] on the first day of treatment.
Tumor volume (in cubic millimeters) was calculated using the ellipsoid formula: (D×(d^2))/2, where “D” represents the large diameter of the tumor and “d” represents the small diameter.
Also, tumor regression and/or percent change in tumor volume was calculated using the formula: ((T−T0)/T0)×100, where ‘T’ represents mean tumor volume of the treated group at a particular day, and ‘T0’ represents mean tumor volume of the same treated group at initiation of treatment.
Statistical analysis was determined by the rank sum test and One Way Anova and a post-hoc Bonferroni t-test (SigmaStat, version 2.0, Jandel Scientific, San Francisco, Calif., USA). […]

[2] = assay type: in vivo; conditions: monotherapy, 10 mice
Method: as §2, with “Autoclaved water and irradiated food (5058-ms Pico Lab mouse chow, Purina Mills, Richmond, Ind., USA) were provided ad libitum, and the animals were kept in a 12 hour light and dark cycle.” left out
Treatment began on day 5 post-cell implant and ended at day 18 post-cell implant.
The peginterferon alfa-2a solution and its corresponding vehicle were dosed using a sterile 1 cc syringe and 26-gauge needle (0.2 ml/animal) once weekly on days 5 and 12 post-cell implant for a total of two injections.
Weight loss was graphically represented as percent change in mean group body weight, using the formula: ((W−W0)/W0)×100, where ‘W’ represents mean body weight of the treated group at a particular day, and ‘W0’ represents mean body weight of the same treated group at initiation of treatment.
Treatment began on day 6 post-cell implant and ended at day 19 post-cell implant.
The peginterferon alfa-2a solution and its corresponding vehicle were dosed using a sterile 1 cc syringe and 26-gauge needle (0.2 ml/animal) once weekly on days 6 and 13 post-cell implant for a total of two injections.

[3] = system: human LOX-IMVI melanoma cell xenografts; assay: Assessment of survival (increased life span) in mice with human LOX-IMVI melanoma xenografts; assay type: in vivo; conditions: monotherapy; for 50% Treatment Days (median survival day of treated group): 50% vehicle days 14; for % ILS (increased life span): versus vehicle group
Method: as §1, §2, §3, §4, §5, §6
For survival assessment, the percent of increased life space (ILS) was calculated as: 100×[(median survival day of treated group−median survival day of control group)/median survival day of control group]. Median survival was determined utilizing Kaplan Meier survival analysis. Survival in treated groups was statistically compared with the vehicle group and survival comparisons were done between groups using the log-rank test (Graph Pad Prism, La Jolla, Calif., USA). Differences between groups were considered significant when the probability value (p) was ≦0.05.
Treatment began on day 6 post-cell implant and ended at day 19 post-cell implant. Four groups of mice developed in example 3 were used. The treatment groups were as follows: • (1) mice receiving Compound I vehicle bid po and peginterferon alfa-2a vehicle 1×/wk sc; • (2) mice receiving Compound I at 25 mg/kg bid po; • (3) mice receiving peginterferon alfa-2a at 450 μg 1×/wk sc; and • (4) mice receiving Compound I at 25 mg/kg bid and peginterferon alfa-2a at 450 μg 1×/wk.
The Compound I suspension and its corresponding vehicle were dosed using a sterile 1 cc syringe and 18-gauge gavage needle (0.2 ml/animal) twice daily. The peginterferon alfa-2a solution and its corresponding vehicle were dosed using a sterile 1 cc syringe and 26-gauge needle (0.2 ml/animal) once weekly on days 6 and 13 post-cell implant for a total of two injections.

[4] = Compound I 25 mg/kg bid po, days 6-19 post-cell implant
[5] = Compound I 75 mg/kg bid po, days 5-18 post-cell implant
[6] = peginterferon alfa-2a 450 μg 1×/wk sc (days 6 and 13)
[7] = peginterferon alfa-2a 900 μg 1×/wk sc (days 5 and 12)

CCCS(=O)(=O)Nc1ccc(F)c(C(=O)c2c[nH]c3ncc(-c4ccc(Cl)cc4)cc23)c1F [Compound I, Propane-1-sulfonic acid{3-[5-(4-chloro-phenyl)-1H-pyrrolo[2,3-b]pyridine-3-carbonyl]-2,4-difluoro-phenyl}-amide]
% Inhibition end of study Day: 19 [1, 4]: regression
% T/C end of study Day: 19 [1, 4]: −5%
Average % Regression per Group [1, 4]: 100%
Mean Tumor Volume End Study DAY: 19 [1, 4]: 0.00 mm^3
Complete Regression [1, 4]: 10
Partial Regression [1, 4]: 0
% Inhibition end of study Day: 18 [1, 5]: regression
% T/C end of study Day: 18 [1, 5]: −4%
Average % Regression per Group [1, 5]: 100%
Mean Tumor Volume End Study DAY: 18 [1, 5]: 0.00 mm^3
Complete Regression [1, 5]: 10
Partial Regression [1, 5]: 0
# animals ≧ 20% BWL [2, 4]: 0
% Change in Body Weight at end of Study Day 19 [2, 4]: 1.3%
Max % Weight Gain [2, 4]: 1.3%
Max % Weight Loss [2, 4]: −1.0%
Mortality [2, 4]: 0
# animals ≧ 20% BWL [2, 5]: 0
% Change in Body Weight at end of Study Day 18 [2, 5]: −7.0%
Max % Weight Gain [2, 5]: −3.6%
Max % Weight Loss [2, 5]: −7.0%
Mortality [2, 5]: 0
50% Treatment Days (median survival day of treated group) [3, 4]: 59 days
% ILS (increased life span) [3, 4]: 321%
50% Treatment Days (median survival day of treated group) [3, 5]: 504 days
% ILS (increased life span) [3, 5]: 3500%

Peginterferon alfa-2a
% Inhibition end of study Day: 19 [1, 6]: regression
% T/C end of study Day: 19 [1, 6]: 0%
% Tumor Growth Inhibition [1, 6]: >100%
Average % Regression per Group [1, 6]: 6%
Mean Tumor Volume End Study DAY: 19 [1, 6]: 122.93 mm^3
Complete Regression [1, 6]: 1
Partial Regression [1, 6]: 6
% Inhibition end of study Day: 18 [1, 7]: 98%
% T/C end of study Day: 18 [1, 7]: 2%
% Tumor Growth Inhibition [1, 7]: 98%
Mean Tumor Volume End Study DAY: 18 [1, 7]: 193.98 mm^3
Complete Regression [1, 7]: 3
Partial Regression [1, 7]: 2
# animals ≧ 20% BWL [2, 6]: 0
% Change in Body Weight at end of Study Day 19 [2, 6]: 8.1%
Max % Weight Gain [2, 6]: 8.1%
Max % Weight Loss [2, 6]: 3.7%
Mortality [2, 6]: 0
# animals ≧ 20% BWL [2, 7]: 0
% Change in Body Weight at end of Study Day 18 [2, 7]: 2.7%
Max % Weight Gain [2, 7]: 2.7%
Max % Weight Loss [2, 7]: 0.7%
Mortality [2, 7]: 0
50% Treatment Days (median survival day of treated group) [3, 6]: 30 days
% ILS (increased life span) [3, 6]: 114%
50% Treatment Days (median survival day of treated group) [3, 7]: 34 days
% ILS (increased life span) [3, 7]: 143%

Reference: patent US9295669B2, “Combination therapy for proliferative disorders” (Hoffman La-Roche Inc., priority 2010, dated 2016)
